Entries after “also recorded” stand apart in the source; their conditions may differ. Where two headings read alike, the source gives them in different places. Marks after values point to notes of the source that are not given here.
Assays:
human DOR [1] = target: T1, human DOR (Homo sapiens, UniProt P41143); conditions: cited from earlier work
T1 construct: expressed in transfected cells; host or cells: CHO cells (membrane preparation)

human DOR [2] = target: T1, human DOR; conditions: cited from earlier work; for Functional Activity for DOR, Emax (95% CI) / EC50 / Emax for the DOR (95% CI) / Emax: Percent stimulation at 10 μM of the tested compound: [35S]GTPγS
human DOR [3] = target: T1, human DOR; experiment: Competitive binding assay, [3H]DPDPE displacement, DOR
Protocol: (§1) The human MOR, DOR, or KOR recombinant CHO cell pellets were resuspended in 50 mM Tris–HCl buffer containing 5 mM MgCl2, 1 mM ethylene glycol bis(2-aminoethyl ether)-N,N,N,N-tetraacetic acid (EGTA), pH 7.4. The cell suspensions were disrupted by use of a glassteflon homogeniser and centrifuged at 48,000× g for 15 min. The supernatant was discarded and the pellets were resuspended in buffer at a concentration of 5 mg protein/mL and stored at −80 °C until further use.
(§2) Human MOR, DOR, or KOR recombinant CHO cell membranes were incubated for 2 h at 25 °C in 0.25 mL of the buffer containing with various concentrations of the tested compound, 2 nM [^3H] DAMGO, [^3H] […] U69,593 (PerkinElmer, Inc., MA, USA), respectively. The incubation was terminated by collecting membranes on Filtermat B filter (PerkinElmer, Inc.) using a FilterMate™ harvester (PerkinElmer, Inc.). The filters were then washed three times with 50 mM Tris–HCl buffer, pH 7.4. Then, MeltiLex scintillant (PerkinElmer, Inc.) was melted onto the dried filters. Radioactivity was determined by a MicroBeta scintillation counter (PerkinElmer, Inc.). […] Ki and 95% CI values were calculated by Prism software (version 5.0).

human MOR = target: T2, human MOR (Homo sapiens, UniProt P35372); experiment: Competitive binding assay, [3H]DAMGO displacement, MOR
T2 construct: expressed in transfected cells; host or cells: CHO cells (membrane preparation)
Protocol: as §1, §2

human KOR = target: T3, human KOR (Homo sapiens, UniProt P41145); experiment: Competitive binding assay, [3H]U69,593 displacement, KOR
T3 construct: expressed in transfected cells; host or cells: CHO cells (membrane preparation)
Protocol: as §1, §2

human DOR [4] = target: T1, human DOR; experiment: [35S]GTPγS binding assay, functional activity for the DOR; assay type: biochemical; conditions: for Emax: read-out: Functional Activity for DOR, Emax (95% CI)
Protocol: as §1
Human MOR, DOR, or KOR recombinant CHO cell membranes were incubated for 2 h at 25 °C in 0.25 mL of 50 mM Tris–HCl buffer containing 5 mM MgCl2, 1 mM EGTA, 100 mM NaCl, pH 7.4 with various concentrations of the tested compound, 30 μM guanosine 5-diphosphate (GDP) and 0.1 nM [^35S]GTPγS (PerkinElmer, Inc.). The incubation was terminated by collecting membranes on Filtermat B filter (PerkinElmer, Inc.) using a FilterMate™ harvester (Perkin Elmer, Inc.). The filters were then washed three times with 50 mM Tris–HCl buffer, pH 7.4. Then, MeltiLex scintillant (PerkinElmer, Inc.) was melted onto the dried filters. Radioactivity was determined by a MicroBeta scintillation counter (PerkinElmer, Inc.). EC50, Emax, and 95% CI values were calculated by Prism software (version 5.0). Nonspecific binding was measured in the presence of 10 μM unlabeled GTPγS (PerkinElmer, Inc.).

[5] = read-out: Binding Affinity, Ki (DOR) (95% CI), [3H]DPDPE, CHO cells expressing human DOR
[6] = read-out: Functional Activity for DOR, EC50 (95% CI), human DOR recombinant CHO cell membrane
[7] = read-out: Ki for the DOR (95% CI)
[8] = read-out: EC50 for the DOR (95% CI)

In the case of `Oc1ccc2c3c1O[C@H]1c4[nH]c5ccccc5c4C[C@@]4(O)[C@@H](C2)N(CCc2ccccc2)CC[C@]314` [SYK-707], the Ki (human DOR [1]; [5]) is given as 0.00194 µM, the “Functional Activity for DOR, Emax (95% CI)” value (human DOR [2]) is given as 40.3% and the EC50 (human DOR [2]; [6]) is given as 0.0151 µM.
In the case of `O=C(Cc1ccccc1)N1CC[C@]23c4c5ccc(O)c4O[C@H]2c2[nH]c4ccccc4c2C[C@@]3(O)[C@H]1C5` [SYK-754], the Ki (human DOR [1]; [7]) is given as 0.089 µM, the “Emax for the DOR (95% CI)” value (human DOR [2]) is given as 88.5% and the “Functional activity for the DOR, in words” value (human DOR [2]) is given as “DOR full agonist with moderate potency”. The EC50 (human DOR [2]; [8]) was 0.127 µM.
`O=S(=O)(c1ccccc1)N1CCC23c4c5ccc(O)c4OC2c2[nH]c4ccccc4c2CC3(O)C1C5` (stereo not drawn) [9c, 6,7-Didehydro-4,5α-epoxy-17-(phenylsulfonyl)indolo[2′,3′:6,7]morphinan-3,14β-diol] showed a Ki (human DOR [3]) of 0.0496 µM, a Ki (human MOR) of 20.5 µM and a Ki (human KOR) of 0.0956 µM. For the same compound, the “Functional activity for the DOR, in words” value (human DOR [4]; [35S]GTPγS) was “neutral DOR antagonist”.
`Oc1ccc2c3c1O[C@H]1c4[nH]c5ccccc5c4C[C@@]4(O)[C@@H](C2)N(CCCc2ccccc2)CC[C@]314` [SYK-903] gave a Ki (human DOR [3]) of 0.166 µM, an EC50 (human DOR [4]) of 0.00737 µM and an Emax (human DOR [4]) of 105%.
`O=S(=O)(CCc1ccccc1)N1CCC23c4c5ccc(O)c4OC2c2[nH]c4ccccc4c2CC3(O)C1C5` (stereo not drawn) [9e, 6,7-Didehydro-4,5α-epoxy-17-((2-phenylethyl)sulfonyl)indolo[2′,3′:6,7]morphinan-3,14β-diol] gave a Ki (human DOR [3]) of 0.132 µM, a Ki (human MOR) of 1.4 µM and a Ki (human KOR) of 17.8 µM. For the same compound, the EC50 (human DOR [4]) was 0.0758 µM, the “Functional activity category for the DOR (by Emax)” value (human DOR [4]; [35S]GTPγS) was “full agonist” and the “Functional activity for the DOR, in words” value (human DOR [4]; [35S]GTPγS) was “DOR agonists; also recorded: full DOR agonist activity with moderate potency”. The Emax (human DOR [4]) was 88.1%.
With `O=S(=O)(Cc1ccccc1)N1CCC23c4c5ccc(O)c4OC2c2[nH]c4ccccc4c2CC3(O)C1C5` (stereo not drawn) [9d, 17-(Benzylsulfonyl)-6,7-didehydro-4,5α-epoxyindolo[2′,3′:6,7]morphinan-3,14β-diol] the “Binding affinity for the DOR, in words” value (human DOR [3]) was “low”, the Ki (human DOR [3]) was 0.734 µM and the Ki (human MOR) was 5.18 µM. The Ki (human KOR) was 18.8 µM, the “Functional activity for the DOR, in words” value (human DOR [4]; [35S]GTPγS) was “DOR agonists” and the Emax (human DOR [4]) was 47.1%.
In the case of `O=C(c1ccccc1)N1CC[C@]23c4c5ccc(O)c4O[C@H]2c2[nH]c4ccccc4c2C[C@@]3(O)[C@H]1C5` [SYK-736], the Ki (human DOR [1]; [7]) is given as 0.29 µM, the “Emax for the DOR (95% CI)” value (human DOR [2]) is given as −92.7% and the EC50 (human DOR [2]; [8]) is given as 0.322 µM.
In the case of `CC(=O)N1CC[C@]23c4c5ccc(O)c4O[C@H]2c2[nH]c4ccccc4c2C[C@@]3(O)[C@H]1C5` [SYK-747], the Ki (human DOR [1]; [7]) is listed as 0.977 µM and the “Emax: Percent stimulation at 10 μM of the tested compound” value (“Emax: Percent stimulation at 10 μM” for short) (human DOR [2]) is listed as −4.86%.
In the case of `Oc1ccc2c3c1O[C@H]1c4[nH]c5ccccc5c4C[C@@]4(O)[C@@H](C2)N(Cc2ccccc2)CC[C@]314` [SYK-619], the Ki (human DOR [1]; [5]) is given as 0.0158 µM, the “Functional Activity for DOR, Emax (95% CI)” value (human DOR [2]) is given as −56.5% and the EC50 (human DOR [2]; [6]) is given as 0.0161 µM.
For `O=C(N1CC[C@]23c4c5ccc(O)c4O[C@H]2c2[nH]c4ccccc4c2C[C@@]3(O)[C@H]1C5)C(F)(F)F` [SYK-752], the Ki (human DOR [1]; [7]) is listed as 0.00784 µM and the “Emax: Percent stimulation at 10 μM” value (human DOR [2]) is listed as −1.10%.
Compound `C=CS(=O)(=O)N1CCC23c4c5ccc(O)c4OC2c2[nH]c4ccccc4c2CC3(O)C1C5` (stereo not drawn) [9g, 6,7-Didehydro-4,5α-epoxy-17-(ethenylsulfonyl)indolo[2′,3′:6,7]morphinan-3,14β-diol] has a Ki (human DOR [3]) of 0.196 µM, a Ki (human MOR) of 3.57 µM and a Ki (human KOR) of 59.1 µM. For the same compound, the EC50 (human DOR [4]) was 0.0078 µM, the “Functional activity for the DOR, in words” value (human DOR [4]; [35S]GTPγS) was “inverse agonist activities; also recorded: almost full inverse agonists” and the Emax (human DOR [4]) was -80.2%.
For `Oc1ccc2c3c1O[C@H]1c4[nH]c5ccccc5c4C[C@@]4(O)[C@@H](C2)N(CC(F)(F)F)CC[C@]314` [SYK-165], the “Emax for the DOR (95% CI)” value (human DOR [2]) is listed as −44.8%.
Work on `CS(=O)(=O)N1CCC23c4c5ccc(O)c4OC2c2[nH]c4ccccc4c2CC3(O)C1C5` (stereo not drawn) [9a, 6,7-Didehydro-4,5α-epoxy-17-(methylsulfonyl)indolo[2′,3′:6,7]morphinan-3,14β-diol] yielded a Ki (human DOR [3]) of 0.284 µM, a Ki (human MOR) of 10.1 µM and an EC50 (human DOR [4]) of 0.000468 µM. For the same compound, the “Functional activity for the DOR, in words” value (human DOR [4]; [35S]GTPγS) was “inverse agonist activities” and the Emax (human DOR [4]) was -48.8%.
For `Oc1ccc2c3c1O[C@H]1c4[nH]c5ccccc5c4C[C@@]4(O)[C@@H](C2)N(CC2CC2)CC[C@]314` [NTI, naltrindole], the “Emax: Percent stimulation at 10 μM” value (human DOR [2]) is listed as 7.50 ^h % and the “Functional activity for the DOR, in words” value (human DOR [2]) is listed as “neutral antagonist”.
For `O=S(=O)(C1CC1)N1CCC23c4c5ccc(O)c4OC2c2[nH]c4ccccc4c2CC3(O)C1C5` (stereo not drawn) [9f, 17-(Cyclopropylsulfonyl)-6,7-didehydro-4,5α-epoxyindolo[2′,3′:6,7]morphinan-3,14β-diol], the Ki (human DOR [3]) was 0.00744 µM, the “Affinity for the DOR, fold lower than that of the mother compound NTI” value (human DOR [3]; Ki compared with NTI) was “over 10 fold” and the Ki (human MOR) was 3.9 µM. The Ki (human KOR) was 0.0136 µM, the EC50 (human DOR [4]) was 0.00159 µM and the “Functional activity category for the DOR (by Emax)” value (human DOR [4]; [35S]GTPγS) was “full inverse agonist (full inverse agonist (−80% ≥ Emax))”. The “Functional activity for the DOR, in words” value (human DOR [4]; [35S]GTPγS) was “inverse agonist activities; also recorded: almost full inverse agonists” and the Emax (human DOR [4]) was -80.5%.
For `O=C(CCc1ccccc1)N1CC[C@]23c4c5ccc(O)c4O[C@H]2c2[nH]c4ccccc4c2C[C@@]3(O)[C@H]1C5` [SYK-753], the Ki (human DOR [1]; [7]) is given as 0.0415 µM, the “Emax for the DOR (95% CI)” value (human DOR [2]) is given as 97.5% and the EC50 (human DOR [2]; [8]) is given as 0.132 µM.
For `C=CC(=O)N1CC[C@]23c4c5ccc(O)c4O[C@H]2c2[nH]c4ccccc4c2C[C@@]3(O)[C@H]1C5` [SYK-836], the Ki (human DOR [1]; [7]) is listed as 0.00116 µM, the “Emax for the DOR (95% CI)” value (human DOR [2]) is listed as −86.2% and the EC50 (human DOR [2]; [8]) is listed as 0.00143 µM.
For `O=C(C1CC1)N1CC[C@]23c4c5ccc(O)c4O[C@H]2c2[nH]c4ccccc4c2C[C@@]3(O)[C@H]1C5` [SYK-623], the Ki (human DOR [1]; [7]) is listed as 0.0173 µM, the “Emax for the DOR (95% CI)” value (human DOR [2]) is listed as −91.2% and the “Functional activity for the DOR, in words” value (human DOR [2]) is listed as “full inverse agonist”. For the same compound, the “Functional activity for the DOR, in words” value (human DOR [2]; listed as SKY-623) was “DOR full inverse agonist with high potency” and the EC50 (human DOR [2]; [8]) was 0.000969 µM.
In the case of `C=CCN1CC[C@]23c4c5ccc(O)c4O[C@H]2c2[nH]c4ccccc4c2C[C@@]3(O)[C@H]1C5` [SYK-706], the Ki (human DOR [1]; [5]) is given as 0.000609 µM, the “Functional Activity for DOR, Emax (95% CI)” value (human DOR [2]) is given as 16.2% and the EC50 (human DOR [2]; [6]) is given as 0.101 µM.
`O=S(=O)(N1CCC23c4c5ccc(O)c4OC2c2[nH]c4ccccc4c2CC3(O)C1C5)C(F)(F)F` (stereo not drawn) [9b, 6,7-Didehydro-4,5α-epoxy-17-(1,1,1-trifluoromethylsulfonyl)indolo[2′,3′:6,7]morphinan-3,14β-diol] showed a Ki (human DOR [3]) of 0.365 µM, a Ki (human MOR) of 11.8 µM and a Ki (human KOR) of 0.675 µM. The “Functional activity for the DOR, in words” value (human DOR [4]; [35S]GTPγS) was “inverse agonist activities” and the Emax at 10 µM (human DOR [4]; read-out: Emax: Percent stimulation at 10 μM of the tested compound, [35S]GTPγS, 10 μM) was -36.1%.

Reference: article PMC7503831 (Molecules, 2020)
